# Test results as given in patent publication US8778837B2, “Use of active substance combinations for controlling animal pests” (priority 2007, dated 2014).
# Where “and” joins values, the source holds several entries; their conditions need not be identical. Identical values can stand only once.
# Key:
# Type in all cases: in vivo
# [1] = tested on: Plutella xylostella, sensitive strain; assay: Plutella xylostella test (sensitive strain, cabbage leaf dip)
# Excerpt: (§1) The activity to be expected for a given combination of two active substances can be calculated as follows (cf. Colby, S. R., “Calculating Synergistic and Antagonistic Responses of Herbicide Combinations”, Weeds 15, pages 20-22, 1967):
# (§2) • X means the degree of destruction expressed in % of the untreated control when using active substance A at an application rate of m ppm or m g/ha, • Y means the degree of destruction expressed in % of the untreated control when using active substance B at an application rate of n ppm or n g/ha, and • E means the degree of destruction expressed in % of the untreated control when employing active substances A and B at application rates of m and n ppm or m and n g/ha, then
# (§3) If the actual insecticidal degree of destruction is greater than calculated, the combination is superadditive regarding its destruction, i.e. a synergistic effect is present. In this case, the degree of destruction which is actually observed must exceed the value calculated on the basis of the above formula for the expected degree of destruction (E).
# Plutella-Xylostella Test (Sensitive Strain)
# (§4) Solvent: 7 parts by weight of dimethylformamide
# (§5) Emulsifier: 2 parts by weight of alkylaryl polyglycol ether
# (§6) To prepare a suitable preparation of active substance, 1 part by weight of active substance is mixed with the stated amounts of solvent and emulsifier, and the concentrate is diluted to the desired concentration with emulsifier-containing water.
# Cabbage leaves (Brassica oleracea) are treated by being dipped into the active substance preparation of the desired concentration and are populated with diamondback moth caterpillars (Plutella xylostella, sensitive strain) while the leaves are still moist.
# (§7) After the desired period of time, the destruction is determined in %. Here, 100% means that all the caterpillars have been destroyed; 0% means that no caterpillars have been destroyed. The destruction rates which have been determined are entered in the Colby formula (see sheet 1).
# Myzus persicae = Myzus persicae test (cabbage leaf dip)
# Excerpt: as §1, §2, §3, §4, §5, §6
# Cabbage leaves (Brassica oleracea) which are severely infested with the green peach aphid (Myzus persicae) are treated by being dipped into the active substance preparation of the desired concentration.
# After the desired period of time, the destruction is determined in %. Here, 100% means that all the aphids have been destroyed; 0% means that no aphids have been destroyed. The destruction rates which have been determined are entered in the Colby formula (see sheet 1).
# Spodoptera frugiperda = Spodoptera frugiperda test (cabbage leaf dip)
# Excerpt: as §1, §2, §3
# Spodoptera frugiperda Test
# as §4, §5, §6
# Cabbage leaves (Brassica oleracea) are treated by being dipped into the active substance preparation of the desired concentration and are populated with armyworm caterpillars (Spodoptera frugiperda) while the leaves are still moist.
# as §7
# [2] = tested on: Phaedon cochleariae larvae; assay: Phaedon cochleariae larvae test (cabbage leaf dip)
# Excerpt: as §1, §2, §3
# Phaedon Cochleariae Larvae Test
# as §4, §5, §6
# Cabbage leaves (Brassica oleracea) are treated by being dipped into the active substance preparation of the desired concentration and are populated with mustard beetle larvae (Phaedon cochleariae) while the leaves are still moist.
# After the desired period of time, the destruction is determined in %. Here, 100% means that all the beetle larvae have been destroyed; 0% means that no beetle larvae have been destroyed. The destruction rates which have been determined are entered in the Colby formula (see sheet 1).
structure (smiles),measurement,setting,value
"CN/C(=N\[N+](=O)[O-])NCc1cnc(Cl)s1 [Clothianidin, clothianidin]",Destruction in % after 6 d,[1]; 20 ppm,25%
same,Destruction in % after 6 d,Myzus persicae; 0.8 ppm,55%
same,Destruction in % after 3 d,Spodoptera frugiperda; 4 ppm,95%
same,Destruction in % after 6 d,[2]; 4 ppm,65%
"N#Cc1nn(-c2c(Cl)cc(C(F)(F)F)cc2Cl)c(N)c1[S+]([O-])C(F)(F)F (stereo not shown) [Fipronil, fipronil]",Destruction in % after 6 d,Myzus persicae; 100 ppm,65%
same,Destruction in % after 6 d,Spodoptera frugiperda; 0.8 ppm,5%
O=[N+]([O-])NC1=NCCN1Cc1ccc(Cl)nc1 [Imidacloprid],Destruction in % after 6 d,Myzus persicae; 0.8 ppm,75%
same,Destruction in % after 6 d,[2]; 20 ppm,75%
"N#Cc1ccccc1NC(=O)c1snc(Cl)c1Cl [Isotianil, 3,4-dichloro-2′-cyano-1,2-thiazole-5-carboxanilide]",Destruction in % after 6 d,[1]; 500 ppm,0%
same,Destruction in % after 1 d,Myzus persicae; 500 ppm,0%
same,Destruction in % after 6 d,Myzus persicae; 500 ppm,10% and 0%
same,Destruction in % after 3 d,Spodoptera frugiperda; 500 ppm,10%
same,Destruction in % after 6 d,[2]; 500 ppm,0%
N#C/N=C1\SCCN1Cc1ccc(Cl)nc1 [Thiacloprid],Destruction in % after 6 d,[1]; 20 ppm,45%
same,Destruction in % after 6 d,Myzus persicae; 0.8 ppm,45%
same,Destruction in % after 6 d,[2]; 4 ppm,0%
CN1COCN(Cc2cnc(Cl)s2)/C1=N\[N+](=O)[O-] [Thiamethoxam],Destruction in % after 1 d,Myzus persicae; 0.8 ppm,75%
same,Destruction in % after 6 d,Spodoptera frugiperda; 20 ppm,70%
same,Destruction in % after 6 d,[2]; 20 ppm,80%
